Several values for one entry are separate records, joined by “and”; a condition that tells them apart may be missing. Equal values may be shown once. Entries after “also recorded” stand apart in the source; their conditions may differ. Read-outs that look alike come from different tables or passages of the source.
How the values were obtained:
recombinant hTS = target: T1, recombinant hTS (Homo sapiens, UniProt P04818); experiment: hTS enzyme inhibition, spectrophotometric assay at 340 nm; assay type: biochemical; settings: for Ki: Ki (text of b40); for IC50: IC50 Recombinant hTS, 100 nM hTS, 50 µM mTHF, 110 µM dUMP, 60 min incubation at 37°C, standard error ±20%
T1 construct: made in house; host or cells: E. coli BL21 (DE3), pQE80L plasmid

IGROV-1 cells = experiment: cells; assay type: cell-based; settings: Homo sapiens, IGROV-1, 72 h, read-out: Cellular IC50 values IGROV-1, 72 h-treatment, compound alone
HT29 cells = experiment: Cell growth, crystal violet assay, HT29; assay type: cell-based, human; settings: for effect of SAINT-Protein transfection on cell survival, HT29: 72 h, Figure 5C
[1] = system: ovarian and colorectal cancer cell lines (A2780, A2780/CP, IGROV-1, HT29, HCT116); experiment: Cell growth, crystal violet assay, statements over several cancer cell lines; assay type: cell-based, human; settings: for IC50: Homo sapiens
P-gp = settings: co-treatment with vincristine; ref Robey et al., 2004; Shafran et al., 2005; cited from earlier work
HCT116 cells [2] = experiment: Cell growth, crystal violet assay, HCT116; assay type: cell-based; settings: Homo sapiens, HCT-116, 72 h, read-out: Cellular IC50 values HCT116
A2780/CP cells = experiment: Cell growth, crystal violet assay, A2780/CP; assay type: cell-based, human
HCT116 cells [3] = experiment: Cell cycle analysis by flow cytometry (PI), HCT116; assay type: cell-based, human; settings: for sub-G0/G1, HCT116 cells, plus SAINT-Protein: 72 h, transfected with SAINT-Protein; for % of cells G0/G1, HCT116 cells / % of cells G2/M, HCT116 cells / % of cells S, HCT116 cells / % of cells sub G0/G1, HCT116 cells: 72 hr, E7 […], 5FU 5µM, with or without SAINT-Protein
Protocol: (§1) A slight opalescence indicates optimal mixing of the components. […] All experiments were conducted in duplicate. […] Quantitative measurements of the cell cycle phase distribution were performed by flow cytometry. Cells were then suspended in 0.5 mL of hypotonic fluorochrome solution (50 μg/mL PI, 0.1% sodium citrate, 0.1% Triton X-100). […] The percentages of nuclei in the different phases of the cell cycle (G0/G1, S and G2/M) were calculated using a DNA cell cycle analysis software (Cell-Fit, Becton Dickinson). A minimum of 10^4 cells was analyzed for each sample.

A2780 cells [4] = experiment: Cell cycle analysis by flow cytometry (PI), A2780; assay type: cell-based, human; settings: 72 hr, Supplementary Figure S1
Protocol: as §1

human pancreatic cancer = settings: compared with 5-FU; ref Costantino et al., 2022; cited from earlier work
A2780 cells [5] = experiment: Cell growth, crystal violet assay, A2780; settings: for IC50: Homo sapiens, A2780, 72 h
[6] = system: ABC transporters (P-glycoprotein, P-gp) and BCRP; settings: in vitro; ref Vaidyanathan et al., 2016; cited from earlier work
[7] = read-out: cancer cell growth inhibition potency (range over cell lines)

T1 sequence (P04818 whole entry): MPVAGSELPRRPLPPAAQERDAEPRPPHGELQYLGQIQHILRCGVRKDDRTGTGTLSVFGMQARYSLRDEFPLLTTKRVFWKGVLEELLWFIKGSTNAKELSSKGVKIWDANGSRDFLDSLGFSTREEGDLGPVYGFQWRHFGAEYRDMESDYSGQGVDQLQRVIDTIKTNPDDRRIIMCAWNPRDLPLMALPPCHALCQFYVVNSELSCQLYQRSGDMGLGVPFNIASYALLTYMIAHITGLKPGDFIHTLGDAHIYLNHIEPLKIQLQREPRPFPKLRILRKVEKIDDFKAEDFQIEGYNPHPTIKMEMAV

Question: Which results are given for NC(=O)c1ccc(NC(=O)C(Sc2ccc([N+](=O)[O-])cc2)c2ccccc2)cc1 (stereo not shown) [Compound E5, 2-Phenyl-2-(4-nitrophenylthio)-N-(4-carboxamidophenyl)acetamide]?
Answer: Ki (recombinant hTS): 40 µM; IC50 (IGROV-1 cells): 69.9 ± 8 µM; effect of SAINT-Protein transfection on cell survival, HT29 (HT29 cells): no significant effect; interaction with elacridar (synergism quotient analysis) ([1]; 200 nM elacridar 2 h pre-treatment, 72 h, A2780, IGROV-1, HT29): synergized by elacridar in all cell lines tested; effect of SAINT-Protein transfection on cell killing, A2780 and A2780/CP ([1]; A2780 and A2780/CP, 72 h, Figure 5A, B): not significantly enhanced; IC50 [1, 7]: 25 to 70 µM

Question: With O=c1[nH]c(=O)n([C@H]2C[C@H](O)[C@@H](COP(=O)(O)O)O2)cc1F [FdUMP, 5-fluorodeoxyuridine-5′-monophosphate, reference compound] as the compound, how does the IC50 (recombinant hTS) read?
Answer: 0.8 µM

Question: For COc1cc2c(cc1OC)CN(CCc1ccc(NC(=O)c3cc(OC)c(OC)cc3NC(=O)c3cnc4ccccc4c3)cc1)CC2 [Tariquidar, 3-Quinolinecarboxamide, N-[2-[[[4-[2-(3,4-dihydro-6,7-dimethoxy-2(1H)-isoquinolinyl)ethyl]phenyl]amino]carbonyl]-4,5-dimethoxyphenyl]-], which “concentration giving complete reversal of resistance” value (P-gp) is on record?
Answer: 25 to 80 nM

Question: For O=C(CSc1ccc([N+](=O)[O-])cc1)Nc1ccc(C(=O)O)cc1 [Compound E1], which IC50 (recombinant hTS) is on record?
Answer: 8 µM and 8.2 µM

Question: What about the IC50 (HT29 cells; Homo sapiens, HT-29, 72 h, read-out: Cellular IC50 values HT29) of the same compound?
Answer: > 100 µM

Question: And the IC50 (HCT116 cells [2])?
Answer: > 100 µM

Question: And the “cellular activity at 100 µM” value ([1]; 100 µM, five cancer cell lines of Table 1)?
Answer: no observed cellular activity

Question: What about the IC50 ([1]; read-out: IC50 with SAINT-Protein, OC cell lines) of the same compound?
Answer: 20 to 40 µM

Question: And the “effect of SAINT-Protein transfection on cytotoxic activity, tested cell lines” value ([1]; with SAINT-Protein versus compound alone)?
Answer: benefits considerably; also recorded: showed cytotoxic activity when associated with the SAINT-Protein

Question: For CS(=O)(=O)c1ccc2nc(NC(=O)C(Sc3ccc([N+](=O)[O-])cc3)c3ccccc3)sc2c1 (stereo not shown) [Compound E7, phenyl-2-(4-nitrophenylthio)-N-(6-methanesulfonylbenzothiazol-2-yl)acetamide], which Ki (recombinant hTS) is on record?
Answer: 7 µM

Question: And the IC50 (A2780/CP cells; Homo sapiens, A2780C/P, 72 h, read-out: IC50 A2780/CP cells, without SAINT-Protein (Figure 4A))?
Answer: 15.3 ± 5 µM

Question: And the “SQ with SAINT-Protein, A2780/CP cells, 5 μM” value (A2780/CP cells; compound 5 μM + SAINT-Protein)?
Answer: 1.54±0.45

Question: And the “SQ with SAINT-Protein, A2780/CP cells, 12 μM” value (A2780/CP cells; compound 12 μM + SAINT-Protein)?
Answer: 1.34±0.1

Question: And the “SQ with SAINT-Protein, A2780/CP cells, 25 μM” value (A2780/CP cells; compound 25 μM + SAINT-Protein)?
Answer: 1.15±0.03

Question: What about the “effect of SAINT-Protein transfection on cell survival, HT29” value (HT29 cells) of the same compound?
Answer: more favoured by the presence of SAINT-Protein

Question: What about the IC50 [1, 7] of the same compound?
Answer: 10 to 37 µM

Question: And the “sub-G0/G1, HCT116 cells, plus SAINT-Protein” value (HCT116 cells [3])?
Answer: ~60%

Question: What about the “% of cells G0/G1, HCT116 cells” value (HCT116 cells [3]) of the same compound?
Answer: 58.15%

Question: And the “% of cells G2/M, HCT116 cells” value (HCT116 cells [3])?
Answer: 11.67%

Question: And the “% of cells S, HCT116 cells” value (HCT116 cells [3])?
Answer: 10.65%

Question: And the “% of cells sub G0/G1, HCT116 cells” value (HCT116 cells [3])?
Answer: 17.53%

Question: And the “effect of SAINT-Protein transfection on sub-G0/G1 phase, A2780 cells” value (A2780 cells [4])?
Answer: significantly increased the percentage of cells in the sub-G0/G1 phase

Question: And the “anticancer profile in mouse model” value (human pancreatic cancer)?
Answer: superior to that of 5-FU

Question: And the IC50 (A2780 cells [5]; read-out: IC50 A2780 cells, with SAINT-Protein (Figure 4A))?
Answer: 5.6 µM

Question: What about the IC50 (A2780 cells [5]; read-out: IC50 A2780 cells, without SAINT-Protein (Figure 4A)) of the same compound?
Answer: 10.9 µM

Question: And the “SQ with SAINT-Protein, A2780 cells, 5 μM” value (A2780 cells [5]; compound 5 μM + SAINT-Protein)?
Answer: 1.10±0.05

Question: And the “SQ with SAINT-Protein, A2780 cells, 12 μM” value (A2780 cells [5]; compound 12 μM + SAINT-Protein)?
Answer: 1.07±0.01

Question: And the “SQ with SAINT-Protein, A2780 cells, 25 μM” value (A2780 cells [5]; compound 25 μM + SAINT-Protein)?
Answer: 0.90±0.1

Question: What does the source list for O=c1[nH]cc(F)c(=O)[nH]1 [Compound 5-FU, 5-fluorouracil, reference compound]?
Answer: sub-G0/G1, HCT116 cells, plus SAINT-Protein (HCT116 cells [3]): about 40%; % of cells G0/G1, HCT116 cells (HCT116 cells [3]): 54.45%; % of cells G2/M, HCT116 cells (HCT116 cells [3]): 14.75%; % of cells S, HCT116 cells (HCT116 cells [3]): 12.55%; % of cells sub G0/G1, HCT116 cells (HCT116 cells [3]): 15.1%; effect of SAINT-Protein transfection on sub-G0/G1 phase, A2780 cells (A2780 cells [4]): did not benefit from SAINT-Protein transfection

Question: With COc1cc2c(cc1OC)CN(CCc1ccc(NC(=O)c3cccc4c(=O)c5cccc(OC)c5[nH]c34)cc1)CC2 [Elacridar, N-[4-[2-(6,7-dimethoxy-3,4-dihydro-1H-isoquinolin-2-yl)ethyl]phenyl]-5-methoxy-9-oxo-10H-acridine-4-carbox amide] as the compound, how does the “concentration reversing multidrug resistance” value [6] read?
Answer: 20 to 100 nM

— paper PMC11602703 (Frontiers in Pharmacology, 2024)
